Assay results from patent US20250099383A1, “COMPOSITIONS AND METHODS FOR DELIVERY OF NUCLEIC ACIDS” (Poseida Therapeutics, Inc., priority 2022, published 2025).

Legend:
[1] = tested on: liver cells; assay: In vivo LNP delivery of firefly luciferase mRNA to liver, bioluminescent imaging (BLI); parameters: species or system BALB/C mice; conditions: adult female BALB/C mice; 0.5 mg/kg fLuciferase mRNA i.v.; LNP as in Example 66; BLI at 4 hr
Experimental: Adult female BALB/C mice (n=3/group) were intravenously administered 0.5 mg/kg of 5′-CleanCap-fLuciferase mRNA (TriLink Biotech) formulated with LNP compositions as described in Example 66. One group of mice was treated with vehicle (PBS, Thermo Fisher Scientific, USA) as a negative control.
The location and extent of luciferase expression in treated and control mice were determined at 4 hr by bioluminescent imaging (BLI) of anesthetized mice using an IVIS Lumina in vivo imaging system (Perkin Elmer) according to the manufacturer's instructions. Briefly, mice were anesthetized using isoflurane in oxygen, and placed supine on a heated stage. Mice were then administered D-luciferin (Perkin-Elmer #122799) IP, and BLI was performed.
Adult female BALB/C mice (n=3/group) were intravenously administered 0.5 mg/kg of 5′-CleanCap-fLuciferase mRNA (TriLink Biotech) formulated with the LNP compositions shown in Table 25. One group of mice was treated with vehicle (PBS, Thermo Fisher Scientific, USA) as a negative control. […]

[2] = Body weight change of mice after LNP administration; type: in vivo, BALB/C mice; conditions: 24 hrs after 0.5 mg/kg LNP encapsulating firefly luciferase mRNA; adult female BALB/C mice
Experimental: The mice above were also monitored for changes in body weight after LNP delivery. Mice were manually weighed on a scale before LNP dosage and then weighed 24 hrs after administration of 0.5 mg/kg of LNP article encapsulating Cleancap firefly luciferase mRNA. The average of weight change n=3 is reported below.
In addition, the body weight of mice treated with the LNP compositions of Table 25 was assessed prior to intravenous administration and twenty-four hours post-administration and the body weights at baseline and post-treatment were compared. The average percentage of body weight change for each group of mice treated with each LNP composition of Table 25 is shown in Table 28. […]

[3] = Physical characteristics of LNPs (particle size, PDI); type: physicochemical; conditions: for PDI DNA / Particle Size (nm) DNA: LNP with Fluc DNA, compound/DOPE/Cholesterol/DMG-PEG2000 38/50/10.0/2.0, Lipid:DNA 45:1 (w/w); for PDI RNA / Particle Size (nm) RNA: LNP with Fluc mRNA, compound/DOPE/Cholesterol/DMG-PEG2000 41.44/45.85/10/2.7, Lipid:RNA 40:1 (w/w)
Experimental: LNP compositions of the present disclosure comprising exemplary compounds of Formula (I) were prepared by combining various percentages of an exemplary compound of Formula (I), the phospholipid DOPE, the structural lipid cholesterol (Chol) and 1,2-dimyristoyl-sn-glycerol methoxypolyethylene glycol (DMG-PEG2000; Avanti Polar Lipids, Alabaster, Alabama, USA).
Individual 25 mg/ml stock solutions were prepared by solubilizing the lipids in 200-proof HPLC-grade ethanol and stock solutions were stored at −80° C. until formulated. At the time of formulation, the lipid stock solutions were briefly allowed to equilibrate to room temp and then placed on a hot plate maintained at a temperature range of 50-55° C.
A 1 mg/ml solution of the desired mRNA or DNA to be incorporated into the LNPs was added to 150 mM sodium acetate buffer (pH 5.2) to form a stock solution and kept on ice. The aqueous mRNA or DNA was then added to the lipids as shown in Table 4 or 5 and hand-mixed vigorously with a single channel pipettor.
The resultant mRNA or DNA LNP compositions were then transferred to a Repligen Float-A-Lyzer dialysis device-having a molecular weight cut off (MWCO) of 8-10 kDa (Spectrum Chemical Mfg. Corp, CA, USA) and processed by dialysis against phosphate buffered saline (PBS) (dialysate: dialysis buffer volume at least 1:200 v/v), pH 7.4 overnight at 4° C. (or alternatively room temperature for at least 4 hours), to remove the 25% ethanol and achieve a complete buffer exchange. In some experiments the LNPs were further concentrated by in an Amicon® Ultra-4 centrifugal filter unit, MWCO-30 kDa (Millipore Sigma, USA) spun at ˜4100 x g in an ultracentrifuge. The mRNA and DNA LNPs were then stored at 4° C. until further use.
LNP compositions of the present disclosure comprising mRNA or DNA encoding firefly luciferase (hereafter “Fluc”; TriLink) and COMPOUNDS 5-49 were prepared as described in Example 61 by combining one of COMPOUNDS 5-49, the phospholipid DOPE, the structural lipid cholesterol (Chol) and 1,2-dimyristoyl-sn-glycerol methoxypolyethylene glycol (DMG-PEG2000) in the percentages presented in Tables 6 and 7:
The physical characteristics of the resulting LNPs were analyzed.
A 1 mg/ml solution of the 5′-CleanCap--fLuciferase mRNA (TriLink Biotech) to be incorporated into the LNPs was added to 150 mM sodium acetate buffer (pH 5.2) to form a stock solution and kept on ice. The lipid phase was mixed with the aqueous mRNA phase inside a microfluidic chip using a NanoAssemblr® instrument (Precision Nanosystems, Vancouver, BC, Canada) according to the manufacturer's instructions to form LNP compositions comprising encapsulated mRNAs.
The average particle size diameter of the LNPs was approximately 75-150 nm.

SMILES	Ave flux (p/s) n = 3 [1] [p/s]	Ave weight change (gram) n = 3 [2] [gram]	PDI DNA [3]	Particle Size (nm) DNA [3] [nm]	PDI RNA [3]	Particle Size (nm) RNA [3] [nm]
CC(C)=CCCC1=CCC(C(=O)OCCOC(=O)CCN(CCCN(C)C)CCC(=O)OCCOC(=O)C2CC=C(CCC=C(C)C)CC2)CC1 (stereo not shown) [Compound 19, ((3,3′-((3-(dimethylamino)propyl)azanediyl)bis(propanoyl))bis(oxy))bis(ethane-2,1-diyl)bis(4-(4-methylpent-3-en-1-yl)cyclohex-3-enecarboxylate)]	1.10E+06	0.70	0.131	213.9	0.133	220.1
CC(C)CCCC1CCC(C(=O)OCCOC(=O)CCN(CCC(=O)OCCOC(=O)C2CCC(CCCC(C)C)CC2)CCN(CCN(CCC(=O)OCCOC(=O)C2CCC(CCCC(C)C)CC2)CCC(=O)OCCOC(=O)C2CCC(CCCC(C)C)CC2)CCN(CCC(=O)OCCOC(=O)C2CCC(CCCC(C)C)CC2)CCC(=O)OCCOC(=O)C2CCC(CCCC(C)C)CC2)CC1 (stereo not shown) [Compound 31]	2.24E+09	−4.10	0.063	267.9	0.145	339.9
CC(C)CCCC(C)CCCC1CCC(C(=O)OCCOC(=O)CCN(CCCN(C)CCCN(CCC(=O)OCCOC(=O)C2CCC(CCCC(C)CCCC(C)C)CC2)CCC(=O)OCCOC(=O)C2CCC(CCCC(C)CCCC(C)C)CC2)CCC(=O)OCCOC(=O)C2CCC(CCCC(C)CCCC(C)C)CC2)CC1 (stereo not shown) [Compound 17]	2.96E+10	−3.10	0.129	287.7	0.145	293.3
CC(C)=CCC/C(C)=C/CCC1=CCC(C(=O)OCCOC(=O)CCN(CCC(=O)OCCOC(=O)C2CC=C(CC/C=C(\C)CCC=C(C)C)CC2)CC(C)N(CCC(=O)OCCOC(=O)C2CC=C(CC/C=C(\C)CCC=C(C)C)CC2)CCC(=O)OCCOC(=O)C2CC=C(CC/C=C(\C)CCC=C(C)C)CC2)CC1 (stereo not shown) [Compound 8]	1.10E+07	−2.53	0.167	319.6	0.073	312.8
CC(C)=CCCC1=CCC(C(=O)OCCOC(=O)CCN(CCC(=O)OCCOC(=O)C2CC=C(CCC=C(C)C)CC2)CCN(CCN(CCC(=O)OCCOC(=O)C2CC=C(CCC=C(C)C)CC2)CCC(=O)OCCOC(=O)C2CC=C(CCC=C(C)C)CC2)CCN(CCC(=O)OCCOC(=O)C2CC=C(CCC=C(C)C)CC2)CCC(=O)OCCOC(=O)C2CCC(CCC=C(C)C)CC2)CC1 (stereo not shown) [Compound 24]	–	–	0.294	353.7	0.106	314.9
CC(C)=CCC/C(C)=C/CCC1=CCC(C(=O)OCCOC(=O)CCN(CCCN(C)C)CCC(=O)OCCOC(=O)C2CC=C(CC/C=C(\C)CCC=C(C)C)CC2)CC1 (stereo not shown) [Compound 5, (E)-((3,3′-((3-(dimethylamino)propyl)azanediyl)bis(propanoyl))bis(oxy)) bis(ethane-2,1-diyl)bis(4-((E)-4,8-dimethylnona-3,7-dien-1-yl)cyclohex-3-enecarboxylate)]	–	–	0.203	187.9	0.200	180.3
CC(C)=CCCC1=CCC(C(=O)OCCN(C)CCOC(=O)C2CC=C(CCC=C(C)C)CC2)CC1 (stereo not shown) [Compound 42]	–	–	0.039	289.2	0.121	304.2
CCCCN(CCOC(=O)C1CC=C(CCC=C(C)C)CC1)CCOC(=O)C1CC=C(CCC=C(C)C)CC1 (stereo not shown) [Compound 44]	–	–	0.102	270	0.09	329
CC(C)=CCCC1=CCC(C(=O)OCCN(CCOC(=O)C2CC=C(CCC=C(C)C)CC2)CCOC(=O)C2CC=C(CCC=C(C)C)CC2)CC1 (stereo not shown) [Compound 48]	–	–	0.202	291.3	0.088	324.9
CC(C)=CCC/C(C)=C/CCC1=CCC(C(=O)CCCN(CCO)CCOC(=O)C2CC=C(CC/C=C(\C)CCC=C(C)C)CC2)CC1 (stereo not shown) [Compound 39]	–	–	0.138	272.5	0.064	297.1
CCCCN(CCOC(=O)C1CC=C(CC/C=C(\C)CCC=C(C)C)CC1)CCOC(=O)C1CC=C(CC/C=C(\C)CCC=C(C)C)CC1 (stereo not shown) [Compound 34]	–	–	0.128	290.2	0.127	386.4
CC(C)=CCCC1=CCC(C(=O)OCCOC(=O)CCN(CCC(=O)OCCOC(=O)C2CC=C(CCC=C(C)C)CC2)CC(C)N(CCC(=O)OCCOC(=O)C2CC=C(CCC=C(C)C)CC2)CCC(=O)OCCOC(=O)C2CC=C(CCC=C(C)C)CC2)CC1 (stereo not shown) [Compound 21]	–	–	0.206	268.3	0.102	296.9
CCCCCCCC/C=C\CCCCCCCC(=O)OCCN(C)CCOC(=O)C1CC=C(CC/C=C(\C)CCC=C(C)C)CC1 (stereo not shown) [Compound 41]	–	–	0.085	295.1	0.057	306.1
CC(C)CCCC1CCC(C(=O)OCCOC(=O)CCN(CCC(=O)OCCOC(=O)C2CCC(CCCC(C)C)CC2)CC(C)N(CCC(=O)OCCOC(=O)C2CCC(CCCC(C)C)CC2)CCC(=O)OCCOC(=O)C2CCC(CCCC(C)C)CC2)CC1 (stereo not shown) [Compound 28]	–	–	0.12	224.7	0.027	254.2
CC(C)=CCCC1=CCC(C(=O)OCCOC(=O)CN(C)CC(=O)OCCOC(=O)C2CC=C(CCC=C(C)C)CC2)CC1 (stereo not shown) [Compound 47]	–	–	0.223	357.6	0.122	363.7
CC(C)=CCC/C(C)=C/CCC1=CCC(C(=O)OCCN(C)CCO)CC1 (stereo not shown) [Compound 40]	–	–	0.146	251.2	0.179	255.5
CC(C)=CCC/C(C)=C/CCC1=CCC(C(=O)OCCOC(=O)CN(C)CC(=O)OCCOC(=O)C2CC=C(CC/C=C(\C)CCC=C(C)C)CC2)CC1 (stereo not shown) [Compound 37]	–	–	0.165	337.2	0.091	356.2
